In PMC12293521 (Current Issues in Molecular Biology, 2025):

What was measured:
[1] = Ferric-reducing antioxidant power (FRAP) assay; settings: concentration for 50% of maximal ferric-reducing capacity; mean ± SD, triplicate
Experimental: The antioxidant capacity of the tested compounds was evaluated using the ferric-reducing antioxidant power (FRAP) assay, based on the reduction of ferric-tripyridyltriazine (Fe^3+-TPTZ) complex to its ferrous form (Fe^2+), resulting in a blue-colored product with a maximum absorbance at 593 nm. The assay was performed according to the modified method of Benzie and Strain [13], with modifications for microplate format and adjusted concentration ranges according to Rodrigues et al.. The FRAP working solution was freshly prepared by mixing 300 mM acetate buffer (pH 3.6), 10 mM TPTZ in 40 mM HCl, and 20 mM FeCl3·6H2O in a 10:1:1 volume ratio. The mixture was warmed to 37 °C before use to ensure optimal reaction conditions. For each reaction, 180 µL of the freshly prepared FRAP reagent was added to a well of a 96-well microplate, followed by 20 µL of the test compound at different concentrations (1–200 µg/mL) prepared in methanol. The mixture was incubated at 37 °C for 30 min. The increase in absorbance was measured at 593 nm using a microplate reader. […] All measurements were performed in triplicate and presented as the mean ± standard deviation.

[2] = molecular target: T1, aldose reductase (Homo sapiens, UniProt P15121); assay: aldose reductase inhibition assay (Aldose Reductase Inhibitor Screening Kit); type: biochemical; settings: experimental; means ± SD of three independent replicates; read-out: ALR IC50 (aldose reductase inhibition) (converted)
T1 construct: purchased Biovision, Milpitas, CA, USA
Experimental: Aldose Reductase Inhibitor Screening Kit (Biovision, Milpitas, CA, USA) was used for the aldose reductase inhibition assay. Determination of the aldose reductase inhibitory effectiveness of the investigated compounds was performed kinetically using the Aldose Reductase Inhibitor Screening Kit (Biovision, Milpitas, CA, USA), according to the manufacturer's protocol. The decrease in the absorption of NADPH at 340 nm was measured in a mixture containing NADPH, the enzyme, and its substrate, […], in addition to test samples [21]. […] After incubation, 40 μL of enzyme substrate in assay buffer was added, and the absorbance was measured at 340 nm kinetically for 60-90 min at 37 °C. A background control free from the enzyme was run and subtracted from the readings. The IC50 was calculated and presented for the samples and the standard.

[3] = molecular target: T2, α-amylase from porcine pancreas (Sus scrofa, UniProt P00690); assay: α-amylase inhibition assay (CNPG3 substrate); type: biochemical; settings: experimental; means ± SD of three independent replicates; read-out: AAI IC50 (α-amylase inhibition) (converted)
T2 construct: purchased Sigma Aldrich; host or cells: porcine pancreas
T2 sequence (P00690 16-511): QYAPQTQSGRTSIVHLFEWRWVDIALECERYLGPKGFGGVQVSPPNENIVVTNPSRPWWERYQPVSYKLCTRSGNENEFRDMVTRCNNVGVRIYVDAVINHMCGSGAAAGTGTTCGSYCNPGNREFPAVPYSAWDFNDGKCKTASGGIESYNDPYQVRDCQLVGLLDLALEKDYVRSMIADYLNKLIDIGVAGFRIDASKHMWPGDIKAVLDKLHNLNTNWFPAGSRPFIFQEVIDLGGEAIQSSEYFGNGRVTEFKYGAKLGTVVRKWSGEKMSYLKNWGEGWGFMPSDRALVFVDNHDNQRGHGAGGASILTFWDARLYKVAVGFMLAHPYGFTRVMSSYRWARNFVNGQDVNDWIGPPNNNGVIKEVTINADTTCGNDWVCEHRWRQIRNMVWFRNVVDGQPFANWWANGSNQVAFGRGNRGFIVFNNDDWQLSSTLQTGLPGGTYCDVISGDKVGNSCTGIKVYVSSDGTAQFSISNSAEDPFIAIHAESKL
Experimental: (§1) Aldose Reductase Inhibitor Screening Kit (Biovision, Milpitas, CA, USA) was used for the aldose reductase inhibition assay.
A pre-incubation mixture was prepared which contained 40 mM phosphate buffer (pH 6.9) together with different concentrations (1, 5, 10, 50, 100, 200 µg/mL) of the compounds. A 0.2 U of α-amylase enzyme was added to this mixture, and the plate was then incubated for 15 min at 37 °C. Then, 2-chloro-4-nitrophenyl maltotrioside (CNPG3) substrate was added, where the final concentration was 0.9 µmole/mL. […] A control which was devoid of the compounds was also run in parallel.

[4] = molecular target: T3, porcine pancreatic lipase (Sus scrofa, UniProt P00591); assay: porcine pancreatic lipase inhibition assay (PNPB substrate); type: biochemical; settings: experimental; means ± SD of three independent replicates; read-out: LIP IC50 (lipase inhibition) (converted)
T3 construct: purchased Sigma Aldrich
T3 sequence (P00591 1-450): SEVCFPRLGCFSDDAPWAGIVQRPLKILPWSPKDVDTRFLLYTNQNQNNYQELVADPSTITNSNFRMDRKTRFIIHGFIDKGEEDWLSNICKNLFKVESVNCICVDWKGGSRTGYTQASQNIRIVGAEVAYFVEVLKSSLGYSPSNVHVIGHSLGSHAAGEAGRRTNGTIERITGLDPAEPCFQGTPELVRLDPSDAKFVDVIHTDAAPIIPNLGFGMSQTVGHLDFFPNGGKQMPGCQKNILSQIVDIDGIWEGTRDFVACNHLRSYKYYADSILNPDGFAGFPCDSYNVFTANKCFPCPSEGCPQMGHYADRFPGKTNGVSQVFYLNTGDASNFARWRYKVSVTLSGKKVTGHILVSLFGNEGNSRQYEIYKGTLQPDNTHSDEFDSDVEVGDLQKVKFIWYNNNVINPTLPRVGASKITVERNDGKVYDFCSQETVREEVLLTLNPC
Experimental: as §1
The porcine pancreatic lipase inhibition assay was utilized in this work, with modifications made based on a previous study. A stock solution of each compound at 1 mg/mL in 10% DMSO was used to prepare […] with concentrations 1, 5, 10, 50, 100, 200 µg/mL by means of dilution with methanol. Just before usage, the pancreatic lipase enzyme was freshly produced as a 1 mg/mL stock solution. […] In individual test tubes, 0.1 mL of porcine pancreatic lipase (1 mg/mL) was mixed with 0.2 mL of each compound concentration. To achieve a final volume of 1 mL, the Tri-HCl solution (pH 7.4) was added, and the mixtures were incubated at 25 °C for 15 min. Following the incubation, 0.1 mL of PNPB solution was introduced to each test tube. The mixtures were once again incubated for 30 min at 37 °C. […] All tests were conducted in triplicate, and the inhibition was calculated as per Equation (1).(1) %Lipase Inhibition=AB−AE/AB×100 where AB is the recorded absorbance of the blank solution, and AE is the recorded absorbance of the compound’s solution.

[5] = molecular target: α-glucosidase enzyme from Saccharomyces cerevisiae; assay: α-glucosidase inhibition assay (PNP-G substrate); type: biochemical; settings: experimental; means ± SD of three independent replicates
Experimental: as §1
The activity of the compounds was assessed spectrophotometrically according to Li et al., with slight modifications. In a volume of 100 µL of 40 mM phosphate buffer (pH 6.9), different concentrations (1, 5, 10, 50, 100, 200 µg/mL) of the compounds were prepared. The tested samples were added to a reaction mixture in a 96-well microplate containing 20 µL of the phosphate buffer and 20 µL of 5 mM p-nitrophenyl α -D-glucopyranoside (PNP-G) in the buffer. […] The IC50 for test compounds as well as the standard was calculated and presented.

[6] = ABTS radical-scavenging assay; settings: mean ± SD
Experimental: The ABTS assay was determined according to Elbouzidi et al., with some modifications. The stock solutions included 7.4 mM ABTS and 2.6 mM potassium persulfate. ABTS radical cation was prepared by mixing the two stock solutions in equal quantities and allowed to stand for 16 h at room temperature in the dark. And then, ABTS radical solution was adjusted with phosphate-buffered saline (pH 7.4) to an absorbance of 0.7–0.8 at 734 nm. For this assay, 190 μL of ABTS radical solution was mixed with 10 μL of each test sample solution in 96-well plates. After 60 min, the decrease of absorbance was measured at 734 nm using a microplate reader (Thermo Fisher Scientific Inc., Waltham, MA, USA). The standard curve was linear between 0.025 and 0.9 mM Trolox. […] Additional dilution was needed if the ABTS value measured was over the linear range of the standard curve.

[7] = Cupric ion-reducing antioxidant capacity (CUPRAC) assay; settings: concentration for 50% of maximal cupric-reducing activity; mean ± SD, triplicate
Experimental: The total antioxidant capacity of the tested monoterpenes was also assessed using the Cupric ion-reducing antioxidant capacity (CUPRAC) assay, which measures the ability of antioxidants to reduce the Cu^2+-neocuproine complex to the stable-colored Cu^+-neocuproine chelate, absorbing at 450 nm. The assay was carried out following the protocol provided by the CUPRAC assay kit (Bioquochem, Asturias, Spain), with slight modifications to accommodate the tested compounds according to Salem et al.. The CUPRAC working solution consisted of a mixture of copper (II) chloride (10 mM), neocuproine (7.5 mM), and ammonium acetate buffer (1 M, pH 7.0) in a 1:1:1 volume ratio. For the assay, 40 µL of each test solution (prepared in methanol at concentrations ranging from 1 to 200 µg/mL) was added to 200 µL of the CUPRAC working solution in a well of a 96-well plate. The plate was incubated at room temperature for 30 min in the dark to allow full color development. The absorbance was then measured at 450 nm using a microplate spectrophotometer (Thermo Fisher Scientific Inc., Waltham, MA, USA). […] All tests were conducted in triplicate, and results are presented as mean ± SD.

| Structure (SMILES) | FRAP EC50 [1] [µg/mL] | IC50 [2] [µM] | IC50 [3] [µM] | IC50 [4] [µM] | AGI IC50 (α-glucosidase inhibition) [5] [µg/mL] | ABTS IC50 [6] [µg/mL] | CUPRAC IC50 [7] [µg/mL] |
| --- | --- | --- | --- | --- | --- | --- | --- |
| CC1=CCC(C(C)(C)O)CC1 (stereo not drawn) [Terpineol, α-terpineol] | 389.01 ± 9.53 | 899 | 1740 | 392 | 340.42 ± 23.19 | 476.49 ± 19.93 | – |
| C=CCc1ccc(O)c(OC)c1 [Eugenol] | 78.55 ± 8.74 | 241 | 339 | 388 | 84.93 ± 6.14 | 19.42 ± 0.58 | 39.53 ± 2.83 |
| O=C1O[C@H]([C@@H](O)CO)C(O)=C1O [AA, ascorbic acid, reference compound] | 56.92 ± 2.99 | – | – | – | – | 136.78 ± 5.97 | – |
| CC12CCC(CC1=O)C2(C)C (centres unmarked) [Camphor] | 1459.83 ± 39.96 | 1710 | 2340 | 3540 | 484.95 ± 17.65 | 755.82 ± 67.30 | – |
| Cc1cc(C(C)(C)C)c(O)c(C(C)(C)C)c1 [BHT, butylated hydroxytoluene, reference compound] | 63.88 ± 4.83 | – | – | – | – | 153.55 ± 9.65 | – |
